Source: PMC9663578, “A fluorogenic probe for predicting treatment response in non-small cell lung cancer with EGFR-activating mutations” (Nature Communications, 2022)
Where “and” joins values, the source holds several entries; their conditions need not be identical. Equal entries are not always repeated.

Assays:
EGFR T790M = target: T1, EGFR T790M (Homo sapiens, UniProt P00533, T790M); assay: Fluorescence turn-on response / titration of HX103 with recombinant EGFR;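 for Fluorescence intensity at 570 nm: 100% is HX103 fluorescence with wild-type EGFR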; assay type: binding; settings: for Fluorescence intensity, T790M: Fig. 2c; for Fluorescence response of HX103 to EGFR T790M: Supplementary Fig. 2f
T1 construct: EGFR T790M (amino acids 668–1210, #PR8052A); purchased Thermo Fisher PR8052A
Description: (d) Fluorescence spectra change of HX103 (5 µ M) with increasing concentration of EGFR L858R
(e) Fluorescence spectra change of HX103 (5 µ M ) with
increasing concentration of EGFR 19del (0 to 6 µM) in PBS buffer. (f) Titration curve of HX103
(5 µM) with increasing concentration of EGFRs (0 to 6 µM). The apparent binding affinity (Kd)
The fluorescence titration curve was fitted on one -
site specific binding model. I and I0 represent the intensities of HX103 at 570 nm in the presence
and absence of protein. Data represent average val ues ± SD, n = 3 independent experiments per
dissolved in dimethyl sulfoxide (DMSO) to obtain stock solutions (10 mM). The prepared stock
solution was diluted in sodium phosphate buffer (PBS, 1 M, pH=7.4) to obtain the desired final
concentration solution, containing 0.1% (v/v) DMSO as a cosolvent.
and emission fluorescence spectra of the solution before/after addition o f different concentration
Data analysis：The obtained fluorescence intensity at 570 nm (Excitation wavelength was 440
nm) in each sample was normalized by using the fluorescence intensity of HX103 in the presence
of EGFR. Specifically, the fluorescence intensity of HX103 in the presence of EGFR wild-type
was set at 100% to normalized that of the remaining samples.

H1975 cells = assay: Subcellular co-localization of HX103 (confocal); assay type: cell-based, human; settings: HX103 5 µM, 0.5 h, ER/Mito/Lyso trackers
Description: Supplementary Figure 6. Application of HX103 in living cells. (a-c) Subcellular co-localization of HX103 with Lyso tracker (a), Mito tracker (b) or ER tracker (c). H1975 cells were treated with HX103 (5 µM, 0.5 h) and stained with Lyso tracker ([…], 30 min), Mito tracker (100 nM, 15 min) or ER tracker (500 nM, 15 min). After a PBS washing, the cells were used for confocal microscopy. Scale bar, 20 µm. Three biological independent experiments were repeated with similar results. (d) The mean fluorescence intensity analysis along white arrows in the overlay image in (a-c). Source data are provided as a Source Data file.
(1 picture or pasted object on this page, not shown here)

PC-9 cells = assay: MTT cytotoxicity assay; assay type: cell-based; settings: Homo sapiens, EGFR 19del, 48 h, n=3
HCC827 cells = assay: FACS assay in cultured cells; settings: for HX103 dose-dependent signal (Supplementary Fig. 18): 20 µM = 100
Description: Briefly, the cultured cells were seeded on the petri dish and counted using Count star BioMed automated cell counter. Around 10^6 live-cells were collected and were pelleted (2000×g, 3 min), followed by washing with PBS (2x). Cells were then resuspended in PBS buffer containing 0.1% BSA (1 × 10^6 cells/mL). […] The cell suspension was resuspended in PBS and analyzed with a FACSVerse^TM flow cytometer (BD Biosciences, LSRFortessa). About 10,000 events per tube were analyzed and the mean fluorescence intensity was detected and analyzed.
For the FACS assay with EGFR antibody, around 10^6 live-cells were collected and washed with PBS (2x). The cells were fixed by 400 µL 4% paraformaldehyde for 15 min at room temperature, followed by permeabilization with 0.1% Triton X-100 for 10 min and blocking with 5% BSA for 30 min. […] The cells were then washed with 0.5% BSA/PBS (3x) and resuspended in 400 µL of 0.1% BSA/PBS. […] The resuspended cell suspension was then analyzed on a FACSVerseTM flow cytometer (BD Biosciences, LSRFortessa). Nonspecific fluorescence binding was omitted by Rabbit mAb IgG isotype control (#3900, CST, 1:100) and the corresponding mean fluorescence was subtracted from the signal measured with each primary antibody. About 10,000 events per tube were analyzed and the mean fluorescence intensity was detected and analyzed.
Subsequently, the treated cells were incubated for 30 min at 37 °C, followed by washing with PBS buffer three times. […] Finally, the co-stained cells were washed with 0.5% BSA/PBS for three times and resuspended in 400 µL of 0.1% BSA/PBS. The obtained cell suspension was ready for analysis. Nonspecific fluorescence binding was omitted by Rabbit mAb IgG isotype control (#3900, CST, 1:100) as described above.
Nonspecific fluorescence binding was omitted by Rabbit mAb IgG isotype control (#3900, CST, 1:100). […] After incubation for another 30 min at room temperature, the co-stained cells were washed with 0.5% BSA/PBS for three times and resuspended in 400 µL of 0.1% BSA/PBS. The obtained cell suspension was ready for analysis. Nonspecific fluorescence binding was omitted by Rabbit mAb IgG isotype control (#3900, CST, 1:100) as described above.
The cells were seeded on the petri dish and cultured at the normal condition with 10% FBS, and that was changed to serum-free condition for 24 h when the cells proliferated at ~80% confluence. […] Nonspecific fluorescence binding was omitted by Rabbit mAb IgG isotype control (#3900, CST, 1:100) as described above.

EGFR L858R = target: T2, EGFR L858R (Homo sapiens, UniProt P00533, L858R); assay: Kinase inhibition assay (fluorescent mobility-shift assay); assay type: biochemical; parameters: Kinase activity: unit not given here; settings: for Kinase activity: L858R, n=1-3
T2 construct: EGFR L858R (amino acids 668–1210, #PR7447A); purchased Thermo Fisher PR7447A

EGFR = target: T3, EGFR (Homo sapiens, UniProt P00533); assay: Fluorescence spectra of HX103 with EGFR, alone or with competing inhibitors (Fig. 2a); assay type: binding
T3 construct: Recombinant human EGFR (amino acids 668–1210, #PR7295B); purchased Thermo Fisher PR7295B

- Fluorescence intensity, T790M (EGFR T790M; wavelength 686 nm): 1577.34
- Fluorescence intensity, T790M (EGFR T790M; wavelength 688 nm): 1523.55
- Fluorescence intensity, T790M (EGFR T790M; wavelength 690 nm): 1473.92
- Fluorescence intensity, T790M (EGFR T790M; wavelength 693 nm): 1419.2
- Fluorescence intensity, T790M (EGFR T790M; wavelength 695 nm): 1359.54
- Fluorescence intensity, T790M (EGFR T790M; wavelength 698 nm): 1296.59
- Fluorescence intensity, T790M (EGFR T790M; wavelength 700 nm): 1231.99
- Fluorescence intensity at 570 nm (EGFR T790M; Fig. 2d, HX103 with EGFR T790M, n=1-3): 62.6243 and 56.177 and 61.7341
- fluorescence turn-on response (EGFR T790M; HX103 5 µM in PBS buffer (0.1% DMSO), 570 nm): relatively low fluorescence
- Kd (EGFR T790M; HX103 5 µM, EGFR 0 to 6 µM in PBS, one-site specific binding model, read-out: apparent binding affinity (Kd)): 6600 ± 4600 nM
- Fluorescence response of HX103 to EGFR T790M (EGFR T790M; EGFR 0.1 µM, n=1-3): 0.8143 and 0.8764 and 0.5043
- Fluorescence response of HX103 to EGFR T790M (EGFR T790M; EGFR 0.5 µM, n=1-3): 1.381 and 1.689 and 1.392
- Fluorescence response of HX103 to EGFR T790M (EGFR T790M; EGFR 1 µM, n=1-3): 1.713 and 2.039 and 1.744
- Fluorescence response of HX103 to EGFR T790M (EGFR T790M; EGFR 6 µM, n=1-3): 6.037 and 7.198 and 5.58
- Kinase activity (EGFR L858R; Log [HX103 (M)] -5.5): 1.026 and 1.162 and 1.004
- Kinase activity (EGFR L858R; Log [HX103 (M)] -6): 0.499 and 0.9509 and 0.7157
- Kinase activity (EGFR L858R; Log [HX103 (M)] -7): 0.6308 and 0.9321 and 0.7802
- Kinase activity (EGFR L858R; Log [HX103 (M)] -7.5): 4.698 and 2.842 and 4.52
- Kinase activity (EGFR L858R; Log [HX103 (M)] -8): 12.69 and 17.65 and 16.97
- Kinase activity (EGFR L858R; Log [HX103 (M)] -8.5): 28.21 and 40.93 and 37.97
- Kinase activity (EGFR L858R; Log [HX103 (M)] -9): 37.52 and 69.85 and 65.69
- IC50 (EGFR L858R; n = 3): 1.5 nM
- Fluorescence intensity, HX103+EGFR (EGFR; wavelength 666 nm): 3266.47
- Fluorescence intensity, HX103+EGFR (EGFR; wavelength 669 nm): 3104.58
- Fluorescence intensity, HX103+EGFR (EGFR; wavelength 671 nm): 2932.33
- Fluorescence intensity, HX103+EGFR (EGFR; wavelength 673 nm): 2750.71
- Fluorescence intensity, HX103+EGFR (EGFR; wavelength 676 nm): 2569.21
- Fluorescence intensity, HX103+EGFR (EGFR; wavelength 678 nm): 2397.75
- Fluorescence intensity, HX103+EGFR (EGFR; wavelength 681 nm): 2246.21
- Fluorescence intensity, HX103+EGFR (EGFR; wavelength 683 nm): 2119.91
- Fluorescence intensity, HX103+EGFR (EGFR; wavelength 686 nm): 2016.43
- Fluorescence intensity, HX103+EGFR (EGFR; wavelength 688 nm): 1932.61
- Fluorescence intensity, HX103+EGFR (EGFR; wavelength 690 nm): 1865.3
- Fluorescence intensity, HX103+EGFR (EGFR; wavelength 693 nm): 1811.29
- Fluorescence intensity, HX103+EGFR (EGFR; wavelength 695 nm): 1767.27
- Fluorescence intensity, HX103+EGFR (EGFR; wavelength 698 nm): 1729.9
- Fluorescence intensity, HX103+EGFR (EGFR; wavelength 700 nm): 1695.87
SMILES: COc1cc2c(Nc3ccc(F)c(Cl)c3)ncnc2cc1OCCCNc1ccc(S(=O)(=O)N(C)C)c2nonc12 [HX103]
- subcellular distribution of HX103-labeled EGFR (H1975 cells): internalized and translocated in the endoplasmic reticulum
- IC50 (PC-9 cells): 1800 nM
- EGFR(+) HX103 (+) (%) AVE (HCC827 cells; HCC827, AVE of n=3): 80.23%
- HX103 (+) (%) AVE (HCC827 cells; HCC827, AVE of n=3): 86.6667%
- HX103 dose-dependent signal (Supplementary Fig. 18) (HCC827 cells; HCC827, HX103 0.01 µM): 0.7326 and 0.7683 and 0.9746
- HX103 dose-dependent signal (Supplementary Fig. 18) (HCC827 cells; HCC827, HX103 0.04 µM): 2.846 and 2.806 and 2.831
- HX103 dose-dependent signal (Supplementary Fig. 18) (HCC827 cells; HCC827, HX103 0.37 µM): 22.4134 and 22.8581 and 22.7877
- HX103 dose-dependent signal (Supplementary Fig. 18) (HCC827 cells; HCC827, HX103 1.1 µM): 38.2787 and 42.4364 and 41.8565
- HX103 dose-dependent signal (Supplementary Fig. 18) (HCC827 cells; HCC827, HX103 3.3 µM): 54.3583 and 44.1499 and 45.6521
- HX103 dose-dependent signal (Supplementary Fig. 18) (HCC827 cells; HCC827, HX103 10 µM): 74.1678 and 84.8664 and 79.5169
- HX103 dose-dependent signal (Supplementary Fig. 18) (HCC827 cells; HCC827, HX103 15 µM): 88.3889 and 68.5257 and 78.4542
- HX103 dose-dependent signal (Supplementary Fig. 18) (HCC827 cells; HCC827, HX103 20 µM): 100
- HX103 signal (Supplementary Fig. 7) (HCC827 cells; HCC827, HX103 alone or with Gefitinib, replicates n=1-3): 106.679 and 93.3209 and 100
- EGFR(+) HX103 (+) (%) (HCC827 cells; HCC827, replicates n=1-3): 76.09% and 81.73% and 82.87%
- HX103(+) (%) (HCC827 cells; HCC827, replicates n=1-3): 99.17% and 83.21% and 77.62%
- normalized MFI of HX103 labeling (HCC827 cells; HX103 5 µM, 30 min, replicates n=1-3): 92.4893% and 105.794% and 84.1202%
- EGFR(+) HX103 (+) (%) (HCC827 cells; HX103 5 µM, replicates n=1-3): 81.73% and 82.87% and 76.09%
